Laboratory results reported in patent US9751853B2, “Solid forms of 3-(5-amino-2-methyl-4-oxo-4H-quinazolin-3-yl)-piperidine-2,6-dione, and their pharmaceutical compositions and uses” (Celgene Corporation, priority 2011, dated 2017).
Entries after “also recorded” stand apart in the source; their conditions may differ.

Assays:
Assay type in all cases: physicochemical
[1] = Grinding studies, solid form by XRPD
Method: Grinding Studies: Grinding experiments were performed using a Wig-L-Bug shaker. About 50 mg of Compound A hydrochloride was added to a polystyrene tube (1″×½″) with a Plexi bead (⅜″). The vial was capped and placed on the shaker for about 50 s. For wet grinding, drops of water were added to the vial and a wet paste was formed prior to placing on the shaker.
(§1) X-ray Powder Diffraction (XRPD): XRPD analysis was conducted on a Thermo ARL X'TRA™ X-ray powder diffractometer using Cu Kα radiation at 1.54 Å. The instrument was equipped with a fine focus X-ray tube. The voltage and amperage of X-ray generator were set at 45 kV and 40 mA, respectively. The divergence slices were set at 4 mm and 2 mm and the measuring slices were set at 0.5 mm and 0.2 mm. Diffracted radiation was detected by a peltier-cooled Si(Li) solid-state detector. A theta-two theta continuous scan at 2.40°/min (0.5 sec/0.02° step) from 1.5°2θ to 40°2θ was used. A sintered alumina standard was used to check the peak position. In general, positions of XRPD peaks are expected to individually vary on a measurement-by-measurement basis by about +0.2°2θ. In general, as understood in the art, two XRPD patterns match one another if the characteristic peaks of the first pattern are located at approximately the same positions as the characteristic peaks of the second pattern. As understood in the art, determining whether two XRPD patterns match or whether individual peaks in two XRPD patterns match may require consideration of individual variables and parameters such as, but not limited to, preferred orientation, phase impurities, degree of crystallinity, particle size, variation in diffractometer instrument setup, variation in XRPD data collection parameters, and/or variation in XRPD data processing, among others. The determination of whether two patterns match may be performed by eye and/or by computer analysis.

[2] = Humidity studies, solid form by XRPD
Method: as §1, with “Humidity Studies: […] The vials were placed in 40° C./75% RH humidity chamber with one vial capped and one vial open. The solids were tested by XRPD after four weeks. […] X-ray Powder” for “X-ray Powder”

[3] = Evaporation experiments, solid form by XRPD
Method: Equilibration/Slurry and Evaporation: Equilibration and evaporation experiments were carried out by adding an excess of Compound A hydrochloride to about 2 mL of a test solvent. The resulting mixture was agitated for at least 24 hrs at about 25° C. or about 50° C. Upon reaching equilibrium, the saturated solution was removed and allowed to evaporate slowly in an open vial under nitrogen at about 25° C. and about 50° C., respectively. The solids resulting from the equilibration were filtered and dried in the air.
as §1

Solubility by HPLC = conditions: thermodynamic from solid, room temperature
Method: Solubility by HPLC: Solubility of Form A in selected aqueous and organic solvents was determined by mixing solid with solvents at room temperature. The samples were filtered after 24 hr of agitation and quantified by an HPLC method, except for DMSO, for which the solubility was measured after 1 hr of agitation.

[4] = Solvent/anti-solvent recrystallization, solid form by XRPD; conditions: MeCN/H2O, ratio 1:5
Method: Solvent/Anti-Solvent Recrystallization: The selected solvent (MeCN/water) was saturated with Compound A hydrochloride at room temperature. Once the solids were completely dissolved, an anti-solvent (acetone or IPA) was added into the solution. The mixture was stirred at room temperature overnight. If no precipitation occurred, the vial was further cooled by placing into a refrigerator (about 0-5° C.). The solids resulting from the recrystallization were filtered and air-dried.
X-ray Powder Diffraction (XRPD): XRPD analysis was conducted on a Thermo ARL X'TRA™ X-ray powder diffractometer using Cu Kα radiation at 1.54 Å. The instrument was equipped with a fine focus X-ray tube. The voltage and amperage of X-ray generator were set at 45 kV and 40 mA, respectively. The divergence slices were set at 4 mm and 2 mm and the measuring slices were set at 0.5 mm and 0.2 mm. Diffracted radiation was detected by a peltier-cooled Si(Li) solid-state detector. A theta-two theta continuous scan at 2.40°/min (0.5 sec/0.02° step) from 1.5°2θ to 40°2θ was used. A sintered alumina standard was used to check the peak position. In general, positions of XRPD peaks are expected to individually vary on a measurement-by-measurement basis by about +0.2°2θ. […]

[5] = Dynamic Vapor Sorption (moisture sorption)
Method: Dynamic Vapor Sorption (DVS): Hygroscopicity was determined on a Surface Measurement Systems DVS. Typically, a sample of about 2-10 mg was loaded into the DVS instrument sample pan. The sample was analyzed on a DVS automated sorption analyzer at room temperature. The relative humidity was increased from 0 to 95% RH at 10% RH step, then at 95% RH. The relative humidity was then decreased in a similar manner to accomplish a full adsorption/desorption cycle.

## Cc1nc2cccc(N)c2c(=O)n1C1CCC(=O)NC1=O.Cl (stereo not drawn) [Form A1, 3-(5-amino-2-methyl-4-oxo-4H-quinazolin-3-yl)-piperidine-2,6-dione hydrochloride]
[1]; Dry grinding
  XRPD Result after grinding: unchanged
[1]; Wet grinding (paste)
  XRPD Result after grinding: unchanged
[2]; 40° C./75% RH environment for four weeks
  Solid form after humidity exposure: not changed
[2]; 40° C./75% RH for 4 weeks, closed vial
  XRPD Result after humidity exposure: Form A1
[2]; 40° C./75% RH for 4 weeks, open vial
  XRPD Result after humidity exposure: Form A1
[2]; 95% RH at room temperature for 4 days, hydrochloride
  XRPD Result after humidity exposure: not changed; also recorded: Form A1
[3]; evaporation at 50° C., Acetonitrile/Water (1:1)
  XRPD Result after evaporation: Form A1
[3]; evaporation at 50° C., Ethanol/Water (1:1)
  XRPD Result after evaporation: Form A1
[3]; evaporation at 50° C., Methanol
  XRPD Result after evaporation: Form A1
[3]; evaporation at 50° C., Tetrahydrofuran/Water (1:1), hydrochloride
  XRPD Result after evaporation: Amorphous
[3]; evaporation at 50° C., Water
  XRPD Result after evaporation: Form A1
[3]; evaporation at room temperature, Acetonitrile/Water (1:1)
  XRPD Result after evaporation: Form A1
[3]; evaporation at room temperature, Ethanol/Water (1:1)
  XRPD Result after evaporation: Form A1
[3]; evaporation at room temperature, Methanol, hydrochloride
  XRPD Result after evaporation: Partial or complete salt dissociation; also recorded: Form A + Form A1
[3]; evaporation at room temperature, THF
  XRPD Result after evaporation: Partial or complete salt dissociation
[3]; evaporation at room temperature, Tetrahydrofuran/Water (1:1), hydrochloride
  XRPD Result after evaporation: Partial or complete salt dissociation; also recorded: Form A + Form A1
[3]; evaporation at room temperature, Water
  XRPD Result after evaporation: Form A1
Solubility by HPLC; aqueous buffer, Acetate buffer (pH 4.0)
  solubility at 24 h: 310 µg/mL
Solubility by HPLC; aqueous buffer, Phosphate buffer (pH 6.8)
  solubility at 24 h: 30 µg/mL
Solubility by HPLC; organic solvent or mixture, Acetone
  solubility at 24 h: 2550 µg/mL
Solubility by HPLC; organic solvent or mixture, Acetonitrile (AcCN)
  solubility at 24 h: 20 µg/mL
Solubility by HPLC; organic solvent or mixture, Dimethyl Sulfoxide (DMSO), 1 hr of agitation
  solubility at 1 h: 21900 µg/mL
Solubility by HPLC; organic solvent or mixture, Ethyl acetate (EtOAc)
  solubility at 24 h: < 1 µg/mL
Solubility by HPLC; organic solvent or mixture, Heptane
  solubility at 24 h: < 1 µg/mL
Solubility by HPLC; organic solvent or mixture, Isopropanol (iPrOH)
  solubility at 24 h: 20 µg/mL
Solubility by HPLC; organic solvent or mixture, Methanol (MeOH)
  solubility at 24 h: 270 µg/mL
Solubility by HPLC; organic solvent or mixture, Tetrahydrofuran (THF)
  solubility at 24 h: < 5 µg/mL
Solubility by HPLC; organic solvent or mixture, Toluene
  solubility at 24 h: < 5 µg/mL
Solubility by HPLC; saline or isotonic, 0.9% NaCl
  solubility at 24 h: 1900 µg/mL
Solubility by HPLC; simulated gastric fluid, 0.1N HCl
  solubility at 24 h: 5340 µg/mL
Solubility by HPLC; Water
  solubility at 24 h: 1710 µg/mL
[4]; antisolvent Acetone
  XRPD Result after recrystallization: Form A1
[4]; antisolvent IPA, hydrochloride
  XRPD Result after recrystallization: partial salt dissociation; also recorded: Form Al + Form A
[5]; DVS 0 to 95% RH
  hygroscopicity: non-hygroscopic
[5]; after DVS cycle
  XRPD after full adsorption/desorption cycle: unchanged
[5]; relative humidity increased from 0 to 95%
  mass change relative to the dry mass: 0.15%
